Test results reported in patent publication US20160083391A1, “TRICYCLIC PIPERAZINE DERIVATIVE” (Sunovion Pharmaceuticals Inc., priority 2014, published 2016).

Test system: PDE1
Assay: In vitro HTRF PDE1 inhibition assay
Format: biochemical
Conditions: HTRF cGMP assay, 100 nM cyclic GMP, PDE (1A3, 1B or 1C) with calmodulin, 45 minutes at 37° C.; isoform of the tabulated values not stated
Method in brief: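 Activities are given as IC50 bands (<1, 1-10, >10 μM) derived from a 665/615 nm time-resolved FRET readout after d2-cGMP/anti-cGMP cryptate detection. Enzymes PDE1A3, 1B or 1C plus calmodulin were incubated 45 min at 37 °C with 100 nM cGMP, 1% DMSO, CaCl2/MgCl2 Tris buffer pH 7.4.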

CC(C)n1ncc2c(=O)n3c(nc21)CN(c1ccncc1)CC3 [Compound I-145, 1-Isopropyl-8-(pyridin-4-yl)-6,7,8,9-tetrahydropyrazino[1,2-a]pyrazolo[3,4-d]pyrimidin-4(1H)-one]
IC50: < 1 µM

COc1ccc(CN2CCCn3c(nc4c(cnn4C(C)C)c3=O)C2)cc1 [Compound I-156, 1-Isopropyl-9-(4-methoxybenzyl)-7,8,9,10-tetrahydro-1H-pyrazolo[3′,4′:4,5]pyrimido[1,2-a][1,4]diazepin-4(6H)-one]
IC50: 1 to 10 µM

COc1ccc(CN2CCc3nc4c(cnn4C(C)C)c(=O)n3CC2)cc1 [Compound I-157, 1-Isopropyl-8-(4-methoxybenzyl)-7,8,9,10-tetrahydro-1H-pyrazolo[3′,4′:4,5]pyrimido[1,2-d][1,4]diazepin-4(6H)-one]
IC50: > 10 µM

COCCn1ncc2c(=O)n3c(nc21)CN(Cc1ccc(OC)cc1)CC3 [Compound I-158, 8-(4-Methoxybenzyl)-1-(2-methoxyethyl)-6,7,8,9-tetrahydropyrazino[1,2-a]pyrazolo[3,4-d]pyrimidin-4(1H)-one]
IC50: 1 to 10 µM

COCCn1ncc2c(=O)n3c(nc21)CN(Cc1ccc(Cl)cc1)CC3 [Compound I-159, 8-(4-Chlorobenzyl)-1-(2-methoxyethyl)-6,7,8,9-tetrahydropyrazino[1,2-a]pyrazolo[3,4-d]pyrimidin-4(1H)-one]
IC50: 1 to 10 µM

COCCn1ncc2c(=O)n3c(nc21)CN(Cc1ccc(Cl)c(Cl)c1)CC3 [Compound I-160, 8-(3,4-Dichlorobenzyl)-1-(2-methoxyethyl)-6,7,8,9-tetrahydropyrazino[1,2-a]pyrazolo[3,4-d]pyrimidin-4(1H)-one]
IC50: > 10 µM

COCCn1ncc2c(=O)n3c(nc21)CN(Cc1cccc(OC)c1)CC3 [Compound I-161, 8-(3-Methoxybenzyl)-1-(2-methoxyethyl)-6,7,8,9-tetrahydropyrazino[1,2-a]pyrazolo[3,4-d]pyrimidin-4(1H)-one]
IC50: > 10 µM

COCCn1ncc2c(=O)n3c(nc21)CN(Cc1cccc(Cl)c1)CC3 [Compound I-162, 8-(3-Chlorobenzyl)-1-(2-methoxyethyl)-6,7,8,9-tetrahydropyrazino[1,2-a]pyrazolo[3,4-d]pyrimidin-4(1H)-one]
IC50: 1 to 10 µM

COCCn1ncc2c(=O)n3c(nc21)CN(Cc1ccc2c(c1)OCO2)CC3 [Compound I-163, 8-(Benzo[d][1.3]dioxol-5-ylmethyl)-1-(2-methoxyethyl)-6,7,8,9-tetrahydropyrazino[1,2-a]pyrazolo[3,4-d]pyrimidin-4(1H)-one]
IC50: > 10 µM

CCCn1ncc2c(=O)n3c(nc21)CN(Cc1ccc(OC)cc1)CC3 [Compound I-164, 8-(4-Methoxybenzyl)-1-propyl-6,7,8,9-tetrahydropyrazino[1,2-a]pyrazolo[3,4-d]pyrimidin-4(1H)-one]
IC50: 1 to 10 µM

CCCn1ncc2c(=O)n3c(nc21)CN(Cc1ccc(Cl)c(Cl)c1)CC3 [Compound I-165, 8-(3,4-Dichlorobenzyl)-1-propyl-6,7,8,9-tetrahydropyrazino[1,2-a]pyrazolo[3,4-d]pyrimidin-4(1H)-one]
IC50: 1 to 10 µM

CCCn1ncc2c(=O)n3c(nc21)CN(Cc1cccc(Cl)c1)CC3 [Compound I-166, 8-(3-Chlorobenzyl)-1-propyl-6,7,8,9-tetrahydropyrazino[1,2-a]pyrazolo[3,4-d]pyrimidin-4(1H)-one]
IC50: 1 to 10 µM

CCCn1ncc2c(=O)n3c(nc21)CN(c1ccc(Cl)cc1)CC3 [Compound I-167, 8-(4-Chlorophenyl)-1-propyl-6,7,8,9-tetrahydropyrazino[1,2-a]pyrazolo[3,4-d]pyrimidin-4(1H)-one]
IC50: < 1 µM

CCCn1ncc2c(=O)n3c(nc21)CN(c1ccc(Cl)c(Cl)c1)CC3 [Compound I-168, 8-(3,4-Dichlorophenyl)-1-propyl-6,7,8,9-tetrahydropyrazino[1,2-a]pyrazolo[3,4-d]pyrimidin-4(1H)-one]
IC50: 1 to 10 µM
